Assay results reported in patent US6635629B2, “3-nitrogen-6,7-dioxygen steroids and uses related thereto” (Inflazyme Pharmaceuticals Ltd., priority 2000, dated 2003).

Columns and labels:
[1] = system: sensitized Brown Norway rats; test: Ovalbumin-induced accumulation of inflammatory cells in lung lavage fluid of sensitized Brown Norway rats; format: in vivo, rat; settings: 5 mg/kg/day for 4 days, p.o., corn oil vehicle; relative to control animals
Summary of the method: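 Male Brown Norway rats were sensitized i.p. with 1 mg ovalbumin on alum on day 1 and challenged on day 21 with nebulized 0.5% ovalbumin for 60 min. Compound was dosed in 300 μl corn oil or water, with vehicle controls.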

mouse ear edema = test: Irritant-induced (phorbol 12-myristate 13-acetate) mouse ear edema; format: in vivo; settings: 15 mg/kg orally in 45% β-cyclodextrin in saline; 3 hours after PMA; compared to control animals
Protocol: A number of mice are uniquely identified by placing a mark with an indelible marker on their tail. Mice are dosed orally with 15 mg/kg test compound in 100 μl of 45% β-cyclodextrin in saline. Mice are briefly anaesthesized with 2% halothane, and 2 μg of phorbol 12-myristate 13-acetate in 25 μl of acetone is applied to the inner and outer sides of the left ear of the mouse. Acetone is applied to the right ear of the mouse in the same manner to serve as a vehicle control. Control animals receive the same treatment but without any test compound. After 3 hours, mice are sacrificed by cervical dislocation, and a standard sized biopsy is excised from the ears and weighed to the nearest 1/10th of a mg. Data are analyzed by taking the difference of each left ear from the right ear, and then calculating the % inhibition of edema by (((mean Rx/mean irritant))×100)-100.
For example, compound 83 inhibits irritant-induced mouse ear edema by 38% compared to control animals.

[2] = Metabolic stability in human liver S9 fractions; format: in vitro ADME; settings: human, 10 μM, pH 7
From the text: The therapeutic effectiveness of a test compound can be often directly related to its metabolic stability in vivo. The majority of known, marketed drugs are metabolized by a group of enzymes known as P450 enzymes. The S9 fraction of human liver contains all the P450 enzymes and also cytoplasmic enzymes that may be involved in the metabolism of new chemical entities. Metabolism in vitro using human S9 fractions is a standard assay to evaluate relative metabolic stability of new compounds. The test is performed as follows.
Reagents are thawed on ice and combined to make up a Master Mix as follows: Potassium phosphate (100 mM, pH 7), G6P (0.25 mM), G6PDH (2 U/ml), NADPH (1 mM), UDP (0.25 mM), APPS (0.25 mM), and S9 fraction (2 mg/ml). A volume of 498 μl of the Master mix is dispensed into each microcentrifuge tube. A volume of 2 μl of 2.5 mM test compound (final concentration of 10 μM) is dispensed into the center of the lid of the appropriate tube, and the lids gently closed to prevent mixing. Synchronous combination of test compound and master mix is achieved by simultaneous ten times inversion of the tubes, which are then incubated at 37° C. and shaken at 150 rpm for the appropriate incubation times. While incubation is in progress, all 0 time samples are mixed individually by three times inversion followed by the immediate addition of 500 μl ice cold acetonitrile with three times inversion to stop the reaction. Immediately after each 15 minutes and 30 minutes incubation is complete, ice cold acetonitrile is added to each tube and the tubes mixed by three times inversion. All sample tubes are incubated at −80° C. for a minimum of 15 minutes, thawed and remixed by inversion. Aliquots of 650 μl are transferred to Chromatographic Specialties micro-spin filter system tubes (0.2 μm nylon membrane, C618505) and centrifuged at 13,000 rpm for 48 seconds. The sample filtrates are stored at −80° C.
Sample filtrates are analyzed on LCMS, and percent remaining after 15 and 30 minute incubation is calculated relative to the 0 minute incubation.
The metabolic stability of various compounds are summarized in Table 10 as the percent remaining after 15 or 30 minutes incubation with human liver S9 fractions.

C/C=C1/CCC2C3C(CC[C@]12C)[C@@]1(C)CC[C@H](N)CC1[C@@H](O)[C@@H]3O (stereo partly drawn) [Compound 83]
% inhibition of eosinophils [1]: 67% | % inhibition of lymphocytes [1]: 38% | % inhibition of neutrophils [1]: 34% | inhibition of irritant-induced mouse ear edema (mouse ear edema): 38% | % remaining after 15 min ([2]; s9, 15 min): 92 ± 19% | % remaining after 30 min ([2]; s9, 30 min): 91 ± 21%
